Source: paper PMC11601581 (bioRxiv, 2024)

Target: NTSR1 (Homo sapiens, UniProt P30989)
Assay: BRET1 β-arrestin1/2 recruitment to NTSR1, ligand alone
Assay type: cell-based

NTSR1, sequence (P30989 whole entry): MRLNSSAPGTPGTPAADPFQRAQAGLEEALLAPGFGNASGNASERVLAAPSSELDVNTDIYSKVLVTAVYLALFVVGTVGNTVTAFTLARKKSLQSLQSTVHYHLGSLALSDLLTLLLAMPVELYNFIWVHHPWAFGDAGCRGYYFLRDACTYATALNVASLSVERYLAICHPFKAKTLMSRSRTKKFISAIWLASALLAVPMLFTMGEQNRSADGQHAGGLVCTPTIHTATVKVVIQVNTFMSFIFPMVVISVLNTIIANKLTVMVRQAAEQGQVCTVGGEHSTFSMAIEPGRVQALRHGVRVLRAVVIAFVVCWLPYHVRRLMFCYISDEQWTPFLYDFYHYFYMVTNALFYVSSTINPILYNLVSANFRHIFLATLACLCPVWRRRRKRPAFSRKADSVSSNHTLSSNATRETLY

## COc1cccc(OC)c1-c1cc(C(=O)NC2(C(=O)O)C3CC4CC(C3)CC2C4)nn1-c1ccc(C(=O)N(C)CCCN(C)C)cc1C(C)C (centres unmarked) [SR142948A]
β-arrestin1
  agonist efficacy: without effect
β-arrestin2
  agonist efficacy: without effect
